Entries after “also recorded” stand apart in the source; their conditions may differ.
Assays:
[1] = system: normal human peripheral blood mononuclear cells (HPBMC); experiment: Cytokine production by HPBMC (ELISA); assay type: cell-based; conditions: for Concentration of Cytokines: IFN-γ / Concentration of Cytokines: IL-2 / Concentration of Cytokines: IL-6: HPBMC, 18 hrs
Text: Supernatants were collected and quantitated for IL-2, IFN-γ, IL-6 by commercial ELISA.

[2] = system: Bcr-Abl positive CML cell line (K562); experiment: Cell count assay, viable cells by trypan blue exclusion; assay type: cell-based, human
Procedure: Cell count assays were performed by plating cells in the presence of regular growth medium with or without indicated amount of extract, FIG. 2(a), fraction, FIG. 2(b), purified compound, FIG. 2(e), and its sodium salt, FIG. 2 (d). Each day, viable cells were counted as assessed by exclusion of try pan blue, FIG. 2(e).

K562 cells [3] = experiment: Confocal microscopy, Annexin V staining; assay type: cell-based, human; conditions: K562, FIG. 3c
Procedure: (§1) FIG. 3(e). Fluorescence images of K562 and Molt-4 cells after treatment with NaChl followed by staining with annexin V-Allexa™ staining with annex in V are shown in left panels and bright filed phase contrast views are shown in right panels.
(§2) Confocal microscopy. K562 and Molt-4 cells were treated with NaChl followed by staining with Annexin-V -Allexa™ as described in example 5, and allowed to adhere onto poly-L-lysine-coated coverslips for 10 min. Representative fields of cells were analysed with a Leica TCS SP2 confocal laser scanning microscope (Heidelberg, Germany).

K562 cells [4] = experiment: Morphology analysis by phase contrast microscopy; assay type: cell-based, human; conditions: 67.5 nmole/10^5 cells, 6 h, FIG. 2f
Procedure: (§3) FIG. 2. […] The flow diagram of purification is shown. […] Cell count assays were performed by plating cells in the presence of regular growth medium with or without indicated amount of extract, FIG. 2(a), fraction, FIG. 2(b), purified compound, FIG. […], and its sodium salt, FIG. 2 (d). Each day, viable cells were counted as assessed by exclusion of try pan blue, FIG. […]. Viability of PBMC obtained from three Ph^+ CML patients and one Ph^− CML patient after treatment with Na-Chl (67.5 nmole/10^5 cells), FIG. 2(f), Morphological changes of K562 cells after treatment with NaChl (67.5 nmole/10^5 cells) for 6 h (phase contrast micrographs, ×400).
Morphology analysis of Bcr-Abl positive CML cell line K562 by phase contrast microscopy. Cells were left untreated (NT) or treated with NaChl (Nachl; 67.5 nmole/10^5 cells) and viewed under phase contrast microscope (magnification ×400).

K562 xenografts = experiment: In vivo studies on K562 xenografts in nude mice; set-up: species or system mouse; conditions: 25-150 mg/kg intraperitoneally once a day for 10 days, FIG. 5
Procedure: FIG. 5. K562 cells embedded in Matrigel were staged in nude mice until tumors reached 200-300 mm^3. PBS (●), NaChl (25 mg/kg, □; 100 mg/kg, A; 150 mg/kg, ∘) were administered intraperitoneally once a day for ten days.
In vivo studies on K562 xenografts: K562 cells were suspended to 5×10^7 cells/ml in matrigel (BD Biosciences, Mountain View, Calif.; 1 volume of cells with 1 volume of cold Matrigel). Nude female mice 6 to 7 weeks of age were given injections of 0.2 ml of this suspension. Animals were left untreated until K562 xenografts reached 200-300 mm^3. […] Phosphate buffered saline (PBS, 0.2 ml per mouse) was used as a control. Animal studies were conducted under an approved institutional Animal Care and Use Committee protocol.

K562 cells [5] = experiment: Immunoblot detection of caspase 3 activation; assay type: cell-based, human; conditions: 24 h, FIG. 3d
Procedure: (§4) FIG. 3(d). Treatment with NaChl leads to activation of procaspase-3 in Ph+ cells. Cells were left untreated or treated with NaChl (T) for 24 h. Cells were harvested, lysed, equivalent amount of lysates were separated by SDS-PAGE and electrotransferred. The filters were probed with anti-caspase-3 that recognize both procaspase3 (32 Kda, upper band) and caspase-3 cleavage product (17 Kda, lower band).
(§5) Immunoblot assay. Cells were harvested, lysed, equivalent amount of lysates were separated by SDS-PAGE and electro-transferred. The filters were probed with anti-caspase-3 antibody (B.D. Pharmingen), anti-c-Abl antibody or anti-phospho-c-Abl antibody (Cell Signaling Technology).

[6] = system: PBMC of Bcr-Abl negative CML patients; experiment: Immunoblot detection of caspase 3 activation; assay type: cell-based, human; conditions: 24 h, FIG. 3d
Procedure: as §4, §5

[7] = system: PBMC of Bcr-Abl (Ph) positive CML patients; experiment: Immunoblot detection of caspase 3 activation; assay type: cell-based, human; conditions: 24 h, FIG. 3d
Procedure: as §4, §5

PBMC of normal donors = experiment: Immunoblot detection of caspase 3 activation; assay type: cell-based, human; conditions: 24 h, FIG. 3d
Procedure: as §4, §5

[8] = system: STI571-sensitive K562 cells; experiment: Proliferation by [3H]thymidine uptake; assay type: cell-based, human; conditions: 48 h, graded concentrations, FIG. 6
Procedure: (§6) FIG. 6. […] K562 and K562-R cells were incubated with graded concentrations of ST1571 (A) or NaChl (B) for 48 h, proliferation was then determined by [^3H] thymidine uptake.
(§7) K562 and STI571-resistant K562 cells (K562-R) were incubated with graded concentrations of ST1571 or NaChl for 48 hours, proliferation was then determined by [^3H]thymidine uptake.

[9] = system: Philadelphia chromosome (Bcr-Abl) positive CML patients PBMC; experiment: Viability of CML patients' PBMC; assay type: cell-based, human; conditions: 67.5 nmole/10^5 cells, FIG. 2e; listed as NaChl
Procedure: as §3
(§8) Culture of Bcr-Abl positive CML cell line (K562), peripheral blood cells of CML patients, Bcr-Abl-negative ALL cell line (Molt-4) and peripheral blood cells of CML patients. Cell count assays were performed by plating cells in the presence of regular growth medium with or without indicated amount of extract, fraction, purified compound and its sodium salt. Each day, viable cells were counted as assessed by exclusion of trypan blue.

[10] = system: Bcr-Abl negative CML patients PBMC; experiment: Viability of CML patients' PBMC; assay type: cell-based, human; conditions: 67.5 nmole/10^5 cells, FIG. 2e; listed as NaChl
Procedure: as §3, §8

K562 cells [11] = experiment: DNA cell cycle analysis (PI staining); assay type: cell-based, human; conditions: 1 or 2 days culture, FIG. 3b
Procedure: (§9) FIG. 3(b). Treatment with NaChl results in early cell cycle arrest followed by apoptosis in Ph^+ cells. Cells were cultured in the presence or absence of NaChl. After 1 or 2 days in culture, cells were collected, permeabilized, and stained with PI for DNA content analysis. Gates were set to assess the percentages of dead (<2n DNA, M1). G0/G1 (2n DNA, M2), and S+G2+M (>2n DNA, M3) cells.
(§10) DNA cell cycle analysis. Cells were cultured with NaChl as described in example 5. After 1 or 2 days culture, cells were collected, permeabilized and stained with PI for DNA cell cycle analysis.

[12] = system: PBMC of Bcr-Abl positive CML patients; experiment: DNA cell cycle analysis (PI staining); assay type: cell-based, human; conditions: 1 or 2 days culture, FIG. 3b
Procedure: as §9, §10

[13] = system: STI571-resistant K562 cells (K562-R); experiment: Proliferation by [3H]thymidine uptake; assay type: cell-based, human; conditions: 48 h, graded concentrations, FIG. 6
Procedure: as §6
K562 cells were incubated with increasing concentrations of STI571 (received as gift in the form of Gleevec from a CML patient receiving Gleevec therapy), and surviving cells were collected by centrifugation and treated with 2-fold higher concentrations of STI571 (Donato, N. J. et al. Blood, 101:690-698, 2003).
as §7

[14] = target: T1, Bcr-Abl protein tyrosine kinase (Homo sapiens, UniProt P00519); experiment: Abl phosphorylation status by flow cytometry and immunoblot; assay type: cell-based; conditions: 3 h, anti-phospho-c-Abl (Tyr245), FIG. 4a, 4b
T1 construct: triggering apoptosis of Bcr-Abl expressing CML cell line K562; BCR N-terminal portion (natural fusion partner, P11274); endogenous in cells; host or cells: Ph+ cells: K562 and PBMC of Bcr-Abl positive CML patients; the other entry of the earlier key: BCR (P11274, Breakpoint cluster region protein)
Procedure: FIG. 4(a) Flow cytometric determination of Abl phosphorylation status. Cells were left untreated (NT) or incubated with NaChl (T) for 3 h, permeabilized and stained with rabbit anti-phospho-c-Abl (Tyr245) antibody. Dotted line, staining with normal rabbit IgG; solid line, staining with immune IgG.
(§11) FIG. 4(b) Immuno-blot-based determination of Abl phosphorylation status. Cells were harvested, lysed, equivalent amount Iysates were separated by SDS-P AGE and electrotransferred. The filters were probed with anti-phospho-c-Abl (Tyr 245) (upper panels) or anti-c-Abl antibody (middle panels).
as §5
(§12) Flow cytometric determination of Abl phosphorylation or Abl expression status. Cells were permeabelysed, stained with rabbit anti-phospho-c-Abl antibody, anti-c-Abl antibody or control rabbit antibody and analysed in a flow cytometer.

Molt-4 cells [15] = experiment: Apoptosis by flow cytometry (annexin V-FITC/PI); assay type: cell-based; conditions: 67.5 nmole/10^5 cells, 6 h, FIG. 3a
Procedure: (§13) FIG. 3(a). Cells were left untreated (NT) or incubated with NaChl (67.5 nmole/10^5 cells) for 6 h and processed for flow cytometry after staining with annexin V-FITC and PI. Viable cells are in the lower left quadrant. Apoptotic cells stained by annexin V are in the lower right quadrant. Late stage apoptotic cells stained by both annexin V and PI are in the upper right quadrant.
(§14) Measurement of apoptosis by flow cytometry. Cells were left untreated or treated with NaChl (67.5 nmole/10^5 cells) for 6 h. After washing, cells were stained with fluorescein isothyocyanate (FITC) conjugated Annexin V and propidium iodide (PI) and analysed in a flow cytometer (FACS Calibur, Beckton Dickinson, USA).

Molt-4 cells [16] = experiment: Immunoblot detection of caspase 3 activation; assay type: cell-based; conditions: 24 h, FIG. 3d
Procedure: as §4, §5

Abl protein = experiment: Abl expression status by flow cytometry and immunoblot; assay type: cell-based, human; conditions: anti-c-Abl antibody, FIG. 4b, 4c
Text: as §11
FIG. 4(c) Flow cytometric determination of Abl expression status. Cells were permeabilized and stained with rabbit anti-c-Abl antibody. Dotted line, staining with normal rabbit IgG; solid line, staining with immune IgG.
as §5, §12

Molt-4 cells [17] = experiment: Confocal microscopy, Annexin V staining; assay type: cell-based; conditions: Molt-4, FIG. 3c
Procedure: as §1, §2

K562 cells [18] = experiment: Apoptosis by flow cytometry (annexin V-FITC/PI); assay type: cell-based, human; conditions: 67.5 nmole/10^5 cells, 6 h, FIG. 3a
Procedure: as §13, §14

[19] = system: PBMC of Bcr-Abl negative CML patients; experiment: Apoptosis by flow cytometry (annexin V-FITC/PI); assay type: cell-based, human; conditions: 67.5 nmole/10^5 cells, 6 h, FIG. 3a
Procedure: as §13, §14

[20] = system: PBMC of Bcr-Abl positive CML patients; experiment: Apoptosis by flow cytometry (annexin V-FITC/PI); assay type: cell-based, human; conditions: 67.5 nmole/10^5 cells, 6 h, FIG. 3a
Procedure: as §13, §14

normal PBMC = experiment: Apoptosis by flow cytometry (annexin V-FITC/PI); assay type: cell-based, human; conditions: 67.5 nmole/10^5 cells, 6 h, FIG. 3a
Procedure: as §13, §14

[21] = PHA 2.5 μg/ml + LPS 1.0 μg/ml + Chl 25 μg/ml

T1 sequence (P00519 28-1130 limits assumed): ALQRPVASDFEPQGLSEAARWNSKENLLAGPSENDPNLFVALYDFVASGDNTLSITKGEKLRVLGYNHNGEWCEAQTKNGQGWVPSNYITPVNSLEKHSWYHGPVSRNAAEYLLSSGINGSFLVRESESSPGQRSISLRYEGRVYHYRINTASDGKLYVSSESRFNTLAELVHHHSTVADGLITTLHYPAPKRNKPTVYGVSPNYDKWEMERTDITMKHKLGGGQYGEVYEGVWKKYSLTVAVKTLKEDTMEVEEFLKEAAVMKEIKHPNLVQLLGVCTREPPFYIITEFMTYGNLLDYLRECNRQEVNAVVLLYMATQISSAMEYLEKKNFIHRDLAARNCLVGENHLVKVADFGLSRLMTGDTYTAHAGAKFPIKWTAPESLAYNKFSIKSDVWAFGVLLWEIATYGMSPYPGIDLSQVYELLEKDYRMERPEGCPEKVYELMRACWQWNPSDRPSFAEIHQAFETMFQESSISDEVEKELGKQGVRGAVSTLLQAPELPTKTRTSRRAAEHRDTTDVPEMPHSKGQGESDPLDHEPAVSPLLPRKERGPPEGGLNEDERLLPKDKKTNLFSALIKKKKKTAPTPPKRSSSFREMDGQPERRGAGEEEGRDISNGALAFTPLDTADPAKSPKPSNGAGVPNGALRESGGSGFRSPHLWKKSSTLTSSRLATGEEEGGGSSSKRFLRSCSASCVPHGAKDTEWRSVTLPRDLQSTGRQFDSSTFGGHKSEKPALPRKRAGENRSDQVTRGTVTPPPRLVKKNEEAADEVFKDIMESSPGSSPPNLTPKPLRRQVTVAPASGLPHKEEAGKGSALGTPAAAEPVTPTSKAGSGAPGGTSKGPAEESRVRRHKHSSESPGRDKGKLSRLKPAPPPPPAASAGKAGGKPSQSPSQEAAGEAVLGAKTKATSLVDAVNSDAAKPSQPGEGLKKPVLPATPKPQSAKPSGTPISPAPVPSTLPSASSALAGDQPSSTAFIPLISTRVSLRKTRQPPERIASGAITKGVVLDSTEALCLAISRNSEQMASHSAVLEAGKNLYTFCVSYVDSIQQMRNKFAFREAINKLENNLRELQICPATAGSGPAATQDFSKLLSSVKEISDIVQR

O=C(/C=C/c1ccc(O)c(O)c1)O[C@@H]1C[C@](O)(C(=O)O)C[C@@H](O)[C@H]1O [chlorogenic acid]
Concentration of Cytokines: IFN-γ ([1]; Chl 25 μg/ml alone): 19.4 pg/mL | Concentration of Cytokines: IL-2 ([1]; Chl 25 μg/ml alone): 6.8 pg/mL | Concentration of Cytokines: IL-6 ([1]; Chl 25 μg/ml alone): 781.9 pg/mL | Concentration of Cytokines: IFN-γ [1, 21]: 13.8 pg/mL | Concentration of Cytokines: IL-2 [1, 21]: 2.5 pg/mL | Concentration of Cytokines: IL-6 [1, 21]: 1899.0 pg/mL | production of IL-2, IFN-γ, and IL-6 by HPBMC after stimulation with PHA and LPS ([1]; PHA and LPS stimulation): significantly inhibited | spontaneous production of IL-2, IFN-γ, and IL-6 by HPBMC ([1]; no stimulation): inhibits | IC50 ([2]; Homo sapiens, in vitro, K562 cells, FIGS. 2C & 2D): 27 µM | killing of K562 cells ([2]; cell count, FIG. 2a-2c): higher killing activity of K562 cells compare to crude extract or fraction E

O=C(/C=C/c1ccc(O)c(O)c1)O[C@@H]1C[C@](O)(C(=O)[O-])C[C@@H](O)[C@H]1O.[Na+] [sodium chlorogenate]
Annexin V staining (confocal) (K562 cells [3]): positive Annexin V staining | morphological changes in K562 cells (K562 cells [4]): induces morphological changes (nuclear condensation) | tumor growth of K562 xenografts (K562 xenografts): reduced the tumor growth in a dose dependent manner | apoptosis by caspase 3 activation (K562 cells [5]): Apoptosis in K562 cells | apoptosis by caspase 3 activation [6]: not | apoptosis by caspase 3 activation [7]: Apoptosis | apoptosis by caspase 3 activation (PBMC of normal donors): not | apoptosis/proliferation of STI571-sensitive K562 cells [8]: induces apoptosis | production of interferon gamma ([1]; statement referring to Table II): significantly inhibits | killing of Bcr-Abl positive CML patients PBMC [9]: active in killing; also recorded: destroys | effect on Bcr-Abl negative CML patients PBMC [10]: no effect; also recorded: without any effects | DNA cell cycle (K562 cells [11]): induces cell cycle arrest followed by breakdown of DNA | DNA cell cycle [12]: induces cell cycle arrest followed by breakdown of DNA | apoptosis/proliferation of STI571-resistant K562 cells [13]: induces apoptosis | phosphorylation of Bcr-Abl protein tyrosine kinase [14]: inhibits phosphorilation | apoptosis (Molt-4 cells [15]): did not induce apoptosis | apoptosis by caspase 3 activation (Molt-4 cells [16]): not in Molt-4 cells | expression of Abl protein level (Abl protein): without affecting the expression | Annexin V staining (confocal) (Molt-4 cells [17]): not in Molt-4 cells | apoptosis (K562 cells [18]): increase in apoptosis | apoptosis [19]: did not induce apoptosis | apoptosis [20]: increase in apoptosis | apoptosis (normal PBMC): remain virtually unaffected | apoptosis (normal PBMC; listed as NaChl): did not induce apoptosis
